According to US6603044B1, “Phthalamide derivatives, or salt thereof agrohorticultural insecticide, and method for using the same” (Nihon Nohyaku Co., Ltd., priority 1998, dated 2003):

How the values were obtained:
[1] = system: Smaller tea Tortrix (Adoxophyes sp.); assay: Insecticidal effect on smaller tea tortrix (Test Example 3); type: in vivo; details: 50 ppm; tea leaf immersed 30 seconds; larvae; 25° C., humidity 70%; eight days after the inoculation
Description: Insecticidal Effect on Smaller tea Tortrix (Adoxophyes sp.)
A leaf of tea tree was immersed for 30 seconds in a liquid chemical containing each compound listed in Table 1, 2 or 3 as an active ingredient to adjust the concentration to 50 ppm. After air-dryness, the leaf was transferred to a plastic dish with a diameter of 9 cm and inoculated with larval smaller tea tortrix. Then, the leaf was allowed to stand in a room thermostatted at 25° C. at a humidity of 70%. Eight days after the inoculation, the dead and alive were counted, and the insecticidal effect was judged according to the same criterion as mentioned in Test Example 1. The test was carried out with triplicate groups of 10 insects.

[2] = system: Diamond Back Moth (Plutella xylostella); assay: Insecticidal effect on diamond back moth (Test Example 1); type: in vivo; details: 50 ppm; Chinese cabbage seedling with deposited eggs immersed about 30 seconds; 25° C.; six days after the immersion
Excerpt: Insecticidal Effect on Diamond Back Moth (Plutella xylostella)
Adult diamondback moths were released and allowed to oviposit on a Chinese cabbage seedling. Two days after the release, the seedling having the eggs deposited thereon was immersed for about 30 seconds in a liquid chemical prepared by diluting a preparation containing each compound listed in Table 1, 2 or 3 as an active ingredient to adjust the concentration to 50 ppm. After air-dryness, it was allowed to stand in a room thermostatted at 25° C. Six days after the immersion, the hatched insects were counted. The mortality was calculated according to the following equation and the insecticidal effect was judged according to the criterion shown below. The test was carried out with triplicate groups of 10 insects.

SMILES | Test Example 3 insecticidal effect (mortality) [1] | Test Example 1 insecticidal effect (mortality) [2]
CCCN(CCSC)C(=O)c1c(F)cccc1C(=O)Nc1ccc(C(F)(C(F)(F)F)C(F)(F)F)cc1C [2-3] | A (100) | A (100)
CCN(CCS(C)(=O)=O)C(=O)c1c(F)cccc1C(=O)Nc1ccc(C(F)(C(F)(F)F)C(F)(F)F)cc1C [2-12] | A (100) | A (100)
CCN(CCC[S+](C)[O-])C(=O)c1c(F)cccc1C(=O)Nc1ccc(C(F)(C(F)(F)F)C(F)(F)F)cc1C (stereo not drawn) [2-13] | A (100) | A (100)
CSCC(C)NC(=O)c1ccccc1C(=O)Nc1ccc(C(F)(C(F)(F)F)C(F)(F)F)cc1C (stereo not drawn) [Compound No. 16] | A (100) | A (100)
CSCC(C)NC(=O)c1c(I)cccc1C(=O)Nc1ccc(OC(F)(F)F)cc1 (stereo not drawn) [compound 8] | C (89-80) | A (100)
CCSCC(C)NC(=O)c1c(I)cccc1C(=O)Nc1ccc(Cl)cc1C (stereo not drawn) [compound 24] | A (100) | A (100)
CSCC(C)NC(=O)c1ccc(Cl)c(Cl)c1C(=O)Nc1ccc(OC(F)(F)F)cc1C (stereo not drawn) [compound 38] | A (100) | A (100)
CSCC(C)NC(=O)c1cc(Cl)ccc1C(=O)Nc1ccc(C(F)(F)C(F)(F)F)cc1C (stereo not drawn) [compound 43] | A (100) | A (100)
CSCC(C)NC(=O)c1c(C(=O)Nc2ccc(OC(F)(F)F)cc2C)ccc(F)c1F (stereo not drawn) [compound 44] | A (100) | A (100)
CCC(Oc1ccc(NC(=O)c2cccc(I)c2C(=O)NC(C)CSC)c(C)c1)=C(C(F)(F)F)C(F)(F)F (stereo not drawn) [compound 46] | A (100) | A (100)
CSCCNC(=O)c1c(I)cccc1C(=O)Nc1ccc(C(F)(F)C(F)(F)F)cc1C [compound 53] | A (100) | A (100)
CSCCCNC(=O)c1c(I)cccc1C(=O)Nc1ccc(C(F)(C(F)(F)F)C(F)(F)F)cc1C [compound 57] | A (100) | A (100)
Cc1cc(C(F)(F)C(F)(F)F)ccc1NC(=O)c1cccc(I)c1C(=O)NCCSC(C)C [compound 59] | A (100) | A (100)
Cc1cc(C(F)(C(F)(F)F)C(F)(F)F)ccc1NC(=O)c1cccc(I)c1C(=O)NCCSC(C)C [compound 60] | A (100) | A (100)
CCCCSCC(C)NC(=O)c1c(I)cccc1C(=O)Nc1ccc(OC(F)(F)F)cc1C (stereo not drawn) [compound 63] | A (100) | A (100)
CCS(=O)(=O)CC(C)(C)NC(=O)c1c(I)cccc1C(=O)Nc1ccc(OC(F)(F)F)cc1C [compound 251] | A (100) | –
CSCC(C)(C)NC(=O)c1c(C(=O)Nc2ccc(OC(F)(F)F)cc2C)ccc2c1OC(F)(F)O2 [compound 292] | – | A (100)
CSCC(C)NC(=O)c1c(I)cccc1C(=O)Nc1ccc(C(F)(F)F)cc1C (stereo not drawn) [compound 307] | – | A (100)
CSCC(C)(C)NC(=O)c1c(C(=O)Nc2ccc(OC(F)(F)F)cc2C)cccc1[N+](=O)[O-] [compound 322] | – | A (100)
CSCC(C)(C)NC(=O)c1c(C(=O)Nc2ccc(Br)cc2C)cccc1[N+](=O)[O-] [compound 324] | – | A (100)

SMILES | Test Example 3 insecticidal effect (mortality) [1] | Test Example 1 insecticidal effect (mortality) [2]
COC(=O)CC[S+]([O-])CC(C)NC(=O)c1c(I)cccc1C(=O)Nc1ccc(C(F)(C(F)(F)F)C(F)(F)F)cc1C (stereo not drawn) [compound 342] | – | A (100)
COC(=O)CCS(=O)(=O)CC(C)NC(=O)c1c(I)cccc1C(=O)Nc1ccc(C(F)(C(F)(F)F)C(F)(F)F)cc1C (stereo not drawn) [compound 343] | – | A (100)
Cc1cc(C(F)(C(F)(F)F)C(F)(F)F)ccc1NC(=O)c1cccc(I)c1C(=O)NC(C)CS(=O)(=O)c1nc2ccccc2s1 (stereo not drawn) [compound 345] | – | A (100)
CCSCC(C)NC(=O)c1ccc(OC(F)(F)F)cc1C(=O)Nc1ccc(C(F)(C(F)(F)F)C(F)(F)F)cc1C (stereo not drawn) [compound 347] | – | A (100)
CSCC(C)(C)NC(=O)c1ccc(OC(F)(F)F)cc1C(=O)Nc1ccc(C(F)(C(F)(F)F)C(F)(F)F)cc1C [compound 356] | – | A (100)
C[S+]([O-])CC(C)(C)NC(=O)c1c(C(=O)Nc2ccc(OC(F)(F)F)cc2Cl)cccc1[N+](=O)[O-] (stereo not drawn) [compound 377] | – | A (100)
CC(C)(CS(C)(=O)=O)NC(=O)c1c(C(=O)Nc2ccc(OC(F)(F)F)cc2Cl)cccc1[N+](=O)[O-] [compound 378] | – | A (100)
Cc1cc(C(F)(C(F)(F)F)C(F)(F)F)ccc1NC(=O)c1ccc(C)c(Cl)c1C(=O)NC(C)CS(C)(=O)=O (stereo not drawn) [compound 379] | – | A (100)
C[S+]([O-])CC(C)(C)NC(=O)c1c(F)cccc1C(=O)Nc1ccc(OC(F)(F)F)cc1Cl (stereo not drawn) [compound 386] | – | A (100)
CC(C)(CS(C)(=O)=O)NC(=O)c1c(F)cccc1C(=O)Nc1ccc(OC(F)(F)F)cc1Cl [compound 387] | – | A (100)
Cc1cc(OC(F)(F)F)ccc1NC(=O)c1cccc([N+](=O)[O-])c1C(=O)NC(C)C[S+](C)[O-] (stereo not drawn) [compound 389] | – | A (100)
Cc1cc(C(F)(F)F)ccc1NC(=O)c1cccc([N+](=O)[O-])c1C(=O)NC(C)C[S+](C)[O-] (stereo not drawn) [compound 390] | – | A (100)
Cc1cc(C(F)(F)C(F)(F)F)ccc1NC(=O)c1cccc([N+](=O)[O-])c1C(=O)NC(C)C[S+](C)[O-] (stereo not drawn) [compound 391] | – | A (100)
Cc1cc(C(F)(C(F)(F)F)C(F)(F)F)ccc1NC(=O)c1cccc(I)c1C(=O)NC1(C[S+](C)[O-])CCCC1 (stereo not drawn) [compound 446] | – | A (100)
Cc1cc(C(F)(C(F)(F)F)C(F)(F)F)ccc1NC(=O)c1cccc(I)c1C(=O)NC1(CS(C)(=O)=O)CCCC1 [compound 447] | – | A (100)
CSCCC(CO)NC(=O)c1c(I)cccc1C(=O)Nc1ccc(C(F)(C(F)(F)F)C(F)(F)F)cc1C (stereo not drawn) [compound 452] | – | A (100)
CC(C)CC(C)c1cc(C(F)(C(F)(F)F)C(F)(F)F)ccc1NC(=O)c1cccc(I)c1C(=O)NC(C)(C)C[S+](C)[O-] (stereo not drawn) [compound 465] | – | A (100)
CSCC(C)(C)NC(=O)c1c(I)cccc1C(=O)Nc1ccc(C(=O)c2ccc(Cl)cc2)cc1C [compound 469] | – | A (100)
CCN(CC)S(=O)(=O)c1ccc(NC(=O)c2cccc(I)c2C(=O)NC(C)(C)CSC)cc1 [compound 478] | – | A (100)
